Source: patent US5690906A (The Trustees of the University of Pennsylvania, priority 1995, dated 1997)
Read-outs that look alike come from different tables or passages of the source. One block for each compound: values may come before it.

Experiments:
[1] = target: T1, 5-HT1A receptor (Rattus norvegicus, UniProt P19327); test: Inhibition of [^3 H]-8-OH-DPAT binding to rat hippocampal membrane homogenates; conditions: for Ki: against [^3 H]-8-OH-DPAT, rat hippocampus membranes, read-out: K1 (inhibition constant)
T1 construct: from tissue; host or cells: rat hippocampus membrane homogenates
T1 sequence (P19327 1-422): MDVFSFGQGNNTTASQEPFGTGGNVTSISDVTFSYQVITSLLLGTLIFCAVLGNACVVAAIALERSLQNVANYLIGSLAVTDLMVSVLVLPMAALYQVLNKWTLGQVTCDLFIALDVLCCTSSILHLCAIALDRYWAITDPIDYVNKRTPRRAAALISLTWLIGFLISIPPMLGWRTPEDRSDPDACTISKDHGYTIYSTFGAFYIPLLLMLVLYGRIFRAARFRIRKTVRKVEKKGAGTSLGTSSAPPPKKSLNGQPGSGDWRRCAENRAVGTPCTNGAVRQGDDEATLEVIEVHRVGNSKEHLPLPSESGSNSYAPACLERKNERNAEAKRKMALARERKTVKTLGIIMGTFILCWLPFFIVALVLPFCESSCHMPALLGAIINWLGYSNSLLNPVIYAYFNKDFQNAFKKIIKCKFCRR
Procedure: The hippocampal homogenates were prepared in 100 volumes of ice-cold Tris-HCl buffer (50mM, pH 7.4) and centrifuged at 20,000 g for 20 minutes. […] The final pellets were resuspended in the Tris-buffer containing 2mM of MgCl2. […] The tubes were incubated at 37° C. for fifteen minutes and then terminated by vacuum filtration through glass filters (Schleicher & Schuell, No. 25, Keene, N.H.) soaked with 1% polyethylimine. […] Both Scatchard and competition experiments were analyzed using the iterative least-squarecurve fitting program LIGAND.

[2] = Stability of the radiolabelled product on storage (HPLC); assay type: physicochemical
Procedure: Hydrogen peroxide ([…]) was added to a mixture of […] (1mg/ml EtOH), […] and I-125 (2-3 mCi) in a sealed vial. The reaction was allowed to proceed for 20 min at room temperature, and was then terminated by addition of 0.1 ml of sodium bisulfite (300 mg/ml). The reaction mixture was extracted with ethyl acetate (3×1 ml) after neutralization with saturated NaHCO3 solution. The extracted ethyl acetate layers were evaporated to dryness, and the remaining residue was dissolved in EtOH and purified by HPLC using a reverse phase column (PRP-1 column, Hamilton Co., Reno, Nev.) eluted with an isocratic solvent of 80% acetonitrile-20% pH 7.0 buffer (5 mM 3,3'-dimethylglutaric acid). The fractions containing the desired product were collected, condensed and re-extracted with ethyl acetate (3×1 ml). The no-carrier-added final product (purity >98%) was evaporated to dryness and redissolved in […] with 100 mg ascorbic acid added as an anti-oxidant.
No-carrier-added [^125 I ]trans-8-OH-PIPAT(^125 I]8) was prepared by an iododestannylation reaction similar to the procedure reported previously (Acta. Chim. Scan., 1988, B42, 231-236). Hydrogen peroxide (50 μl 3% w/v) was added to a mixture of 50 μl of tributyltin precursor, 11 (11 mg/ml EtOH), 50 μl of 1N HCl and I-125 (2-3 mCi) in a sealed vial. The reaction was allowed to proceed for 20 minutes at room temperature, and was then terminated by addition of 0.1 ml of sodium bisulfite (300 mg/ml). The reaction mixture was extracted with ethyl acetate (3×1 ml) after neutralization with saturated NaHCO3 solution. The extracted ethyl acetate layers were evaporated to dryness, and the remaining residue was dissolved in EtOH and purified by HPCL using a reverse phase column (PRP-1 column, Hamilton Co., Reno, Nev.) eluted with an isocratic solvent of 80% acetonitrile-20% pH 7.0 buffer (5 mM 3,3'-dimethylglutaric acid); the retention time was 9 minutes (1 ml/min). The fractions containing the desired product were collected, condensed and re-extracted with ethyl acetate (3×1 ml). The final product of no-carrier-added (purity>98%) was evaporated to dryness and redissolved in 100 μl of 50% EtOH with 100 μg of ascorbic acid added as an anti-oxidant. The final product [^125 I] trans-8-OH-PIPAT(^125 I]8) was stored at -20° C.

[3] = tested on: dopamine D2S receptor; test: Specific binding of [^125 I]trans-7-OH-PIPAT to D2S receptors expressed in Sf9 cells; design: species or system rat; conditions: data not shown
[4] = tested on: dopamine D2L receptor; test: Specific binding of [^125 I]trans-7-OH-PIPAT to D2L receptors expressed in Sf9 cells; design: species or system rat; conditions: data not shown

Compound: Oc1cccc2c1CC(NC/C=C/I)CC2 (racemic) [(±)trans-8-OH-IPAT, 8-Hydroxy-2-(N-3'-iodo-2'propenyl)aminotetralin]
Ki [1]: 10 ± 2 nM

Compound: CCCN(C/C=C/[125I])C1CCc2ccc(O)cc2C1 (stereo not drawn) [[^125 I]trans-7-OH-PIPAT]
specific binding toward D2S [3]: no specific binding
specific binding toward D2L [4]: no specific binding
stability of the product on storage [2]: stable for at least four weeks
purity after storage for at least four weeks ([2]; 50% etoh with ascorbic acid, 672 h): > 95%

Compound: CCCN(C/C=C/I)C1CCc2cccc(OC)c2C1 (mixture of isomers) [(±)trans-8-OMe-PIPAT, trans-8-Methoxy-2-[N-propyl-N-(3'-iodo-2'propenyl)]aminotetralin]
Ki [1]: 12.6 ± 1.5 nM

The next lines start with results.

Ki [1]: 0.92 ± 0.13 nM
Compound: CCCN(C/C=C/I)C1CCc2cccc(O)c2C1 (mixture of isomers) [(±)trans-8-OH-PIPAT, trans-8-Hydroxy-2-[N-propyl-N-(3'-iodo-2'propenyl)] aminotetralin]
affinity / selectivity for 5-HT1A [1]: unique high affinity and selectivity toward serotonin 5-HT1A sites

purity after storage for at least four weeks ([2]; -20° C., analyzed by HPLC, 40320 min): 95%
stability of the product on storage ([2]; stored at -20° C., 50% EtOH with ascorbic acid): stable for at least four weeks
Compound: CCCN(C/C=C/[125I])C1CCc2cccc(O)c2C1 (stereo not drawn) [[^125 I] trans-8-OH-PIPAT]
